Here are results for 19 compounds from patent US10988449B2, “Isoxazole derivatives as nuclear receptor agonists and uses thereof” (IL DONG PHARMACEUTICAL CO., LTD., priority 2017, dated 2021).

Read-outs that look alike come from different tables or passages of the source.

For data set [1] the following is noted: multiple rodent models; cited from earlier work.
For data set [2] the following is noted: in vivo; cited from earlier work.
For data set [3], the system named is hepatic stellate cells (HSC). The settings on record: cultured HSCs; cited from earlier work.
Another data set is described as follows: Mouse pharmacokinetics. It counts as in vivo. Also on record: concentration or dose not given beside the values. The settings on record: Balb/c male mice, blood samples 15 to 1140 min, LC-MS/MS. The method, then: To evaluate the pharmacokinetics test, the invented 18 compounds of examples were determined as follows. Blood samples are collected at 15, 30, 60, 120, 240, 480, 1140 min. Quantification is by using a LC-MS/MS method specific to the selected compound. Pharmacokinetics parameters are calculated using WinNonLinnon compartmental analysis software.

Another data set has as its target T1, human FXR (Homo sapiens, UniProt Q96RI1).
T1 construct: expressed in transfected cells
T1 sequence (Q96RI1 1-486): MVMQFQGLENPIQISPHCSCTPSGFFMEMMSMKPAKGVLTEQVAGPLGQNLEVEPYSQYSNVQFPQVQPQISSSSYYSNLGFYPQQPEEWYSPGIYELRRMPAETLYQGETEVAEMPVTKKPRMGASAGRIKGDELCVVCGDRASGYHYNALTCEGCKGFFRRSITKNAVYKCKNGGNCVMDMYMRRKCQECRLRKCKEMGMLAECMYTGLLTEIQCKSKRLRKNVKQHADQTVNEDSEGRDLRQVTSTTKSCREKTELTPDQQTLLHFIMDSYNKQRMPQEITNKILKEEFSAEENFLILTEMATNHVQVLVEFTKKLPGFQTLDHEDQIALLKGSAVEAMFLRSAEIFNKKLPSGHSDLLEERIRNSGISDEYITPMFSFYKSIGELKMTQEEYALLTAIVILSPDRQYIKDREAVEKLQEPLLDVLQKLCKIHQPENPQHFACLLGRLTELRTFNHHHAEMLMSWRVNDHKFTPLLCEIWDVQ
Description: FXR reporter assay (cellular FXR activities). It is filed as cell-based. As to conditions: for EC50: FXR reporter cells, 24 hours incubation, luciferase, read-out: Reporter Cell EC50; for Emax: read-out: Emax (%) (GW4064 Emax = 100%). The method in brief:
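EC50 derived from luciferase read-out after 24 h (37 °C, 5% CO2) treatment of human-FXR-expressing reporter cells with serially diluted compound.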
For orientation: A reporter such as luciferase makes a cellular process visible.

The conditions of data set [4]: db/db, ob/ob and KK-A(y)mice; cited from earlier work.

For `CC[C@H]1[C@@H](O)[C@@H]2[C@H](CC[C@]3(C)[C@@H]([C@H](C)CCC(=O)O)CC[C@@H]23)[C@@]2(C)CC[C@@H](O)C[C@@H]12` [Compound 6EtCDCA, 6-ethyl-chenodeoxycholic acid], the hepatic fibrosis result in data set [1] is on record as “promote resolution of hepatic fibrosis”. Moreover, in data set [2], the “impairment of bile flow” value is listed as “fully reverse the impairment of bile flow” and the “liver cell injury caused by the cytotoxic lithocholic acid” value is “protect the hepatocytes against liver cell injury”. In addition, in data set [3], the “expression of fibrotic markers such as α-smooth muscle actin and α1(I) collagen” value is reported as “decreased expression of fibrotic markers”.
Regarding `O=C(O)c1cccc(C#Cc2ccc(OCc3c(-c4c(Cl)cccc4Cl)noc3C3CC3)cc2C(F)(F)F)c1` [Compound I-3, 3-((4-((5-cyclopropyl-3-(2,6-dichlorophenyl)isoxazol-4-yl)methoxy)-2-(trifluromethyl)phenyl)ethynyl)benzoic acid], the AUC in the data set “Mouse pharmacokinetics” (mouse, read-out: AUC) came out at 760 ng·h/mL. Further, at human FXR, the EC50 is 200 to 1000 nM and the maximal effect (Emax) is over 100%.
In the same order, the values of `O=C(O)c1cccc(C#Cc2ccc(OCc3c(-c4c(Cl)cccc4Cl)noc3C3CC3)cc2Cl)c1` [Compound I-15, 3-((2-chloro-4-((5-cyclopropyl-3-(2,6-dichlorophenyl)isoxazol-4-yl)methoxy)phenyl)ethynyl)benzoic acid] are 521 ng·h/mL, 60 to 200 nM and 82%.
In the same order, the values of `O=C(O)c1ccc(C#Cc2ccc(OCc3c(-c4c(Cl)cccc4Cl)noc3C3CC3)cc2Cl)cc1` [Compound I-16, 4-((2-chloro-4-((5-cyclopropyl-3-(2,6-dichlorophenyl)isoxazol-4-yl)methoxy)phenyl)ethynyl)benzoic acid] are 2250 ng·h/mL, 60 to 200 nM and 91%.
In the same order, the values of `O=C(O)c1cncc(C#Cc2ccc(OCc3c(-c4c(Cl)cccc4Cl)noc3C3CC3)cc2Cl)c1` [Compound I-20, 5-((2-chloro-4-((5-cyclopropyl-3-(2,6-dichlorophenyl)isoxazol-4-yl)methoxy)phenyl)ethynyl)nicotinic acid] are 438 ng·h/mL, 60 to 200 nM and 94%.
In the case of `CN(C)c1cc(C#Cc2ccc(OCc3c(-c4c(Cl)cccc4Cl)noc3C3CC3)cc2Cl)cc(C(=O)O)c1` [Compound I-21, 3-((2-chloro-4-((5-cyclopropyl-3-(2,6-dichlorophenyl)isoxazol-4-yl)methoxy)phenyl)ethynyl)-5-(dimethylamino)benzoic acid], the AUC in the data set “Mouse pharmacokinetics” (mouse, read-out: AUC) stood at 6140 ng·h/mL. Besides, on human FXR, the EC50 was at most 20 nM and the Emax worked out at 92%.
For `Nc1cc(C#Cc2ccc(OCc3c(-c4c(Cl)cccc4Cl)noc3C3CC3)cc2Cl)cc(C(=O)O)c1` [Compound I-25, 3-amino-5-((2-chloro-4-((5-cyclopropyl-3-(2,6-dichlorophenyl)isoxazol-4-yl)methoxy)phenyl)ethynyl)benzoic acid] the same measures were 722 ng·h/mL, 60 to 200 nM and 97%.
In the same order, the values of `O=C(O)c1ccc(Cl)c(C#Cc2ccc(OCc3c(-c4c(Cl)cccc4Cl)noc3C3CC3)cc2Cl)c1` [Compound I-28, 4-chloro-3-((2-chloro-4-((5-cyclopropyl-3-(2,6-dichlorophenyl)isoxazol-4-yl)methoxy)phenyl)ethynyl)benzoic acid] are 1780 ng·h/mL, 60 to 200 nM and 91%.
With `O=C(O)c1cc(F)cc(C#Cc2ccc(OCc3c(-c4c(Cl)cccc4Cl)noc3C3CC3)cc2Cl)c1` [Compound I-30, 3-((2-chloro-4-((5-cyclopropyl-3-(2,6-dichlorophenyl)isoxazol-4-yl)methoxy)phenyl)ethynyl)-5-fluorobenzoic acid], the exposure (AUC) in “Mouse pharmacokinetics” (mouse, read-out: AUC) is 680 ng·h/mL. Moreover, at human FXR, the EC50 lay in the range of 20 to 60 nM and the maximal response (Emax) is 92%.
For `O=C(O)c1ccc(F)c(C#Cc2ccc(OCc3c(-c4c(Cl)cccc4Cl)noc3C3CC3)cc2Cl)c1` [Compound I-38, 3-((2-chloro-4-((5-cyclopropyl-3-(2,6-dichlorophenyl)isoxazol-4-yl)methoxy)phenyl)ethynyl)-4-fluorobenzoic acid] the same measures were 1000 ng·h/mL, 60 to 200 nM and 92%.
In the same order, the values of `CNc1cc(C#Cc2ccc(OCc3c(-c4c(Cl)cccc4Cl)noc3C3CC3)cc2Cl)cc(C(=O)O)c1` [Compound I-52, 3-((2-chloro-4-((5-cyclopropyl-3-(2,6-dichlorophenyl)isoxazol-4-yl)methoxy)phenyl)ethynyl)-5-(methylamino)benzoic acid] are 3310 ng·h/mL, 20 to 60 nM and over 100%.
Regarding `CC(C)Nc1cc(C#Cc2ccc(OCc3c(-c4c(Cl)cccc4Cl)noc3C3CC3)cc2Cl)cc(C(=O)O)c1` [Compound I-54, 3-((2-chloro-4-((5-cyclopropyl-3-(2,6-dichlorophenyl)isoxazol-4-yl)methoxy)phenyl)ethynyl)-5-(isopropylamino)benzoic acid], in “Mouse pharmacokinetics” (mouse, read-out: AUC), the AUC was found to be 934 ng·h/mL. For the same compound, at human FXR, the EC50 is at most 20 nM and the Emax was over 100%.
In the same order, the values of `Cc1cc(C#Cc2ccc(OCc3c(-c4c(Cl)cccc4Cl)noc3C3CC3)cc2Cl)cc(C(=O)O)c1` [Compound I-63, 3-((2-chloro-4-((5-cyclopropyl-3-(2,6-dichlorophenyl)isoxazol-4-yl)methoxy)phenyl)ethynyl)-5-methylbenzoic acid] are 11900 ng·h/mL, 60 to 200 nM and 78%.
In the same order, the values of `CC(C)(C)OC(=O)Nc1cc(C#Cc2ccc(OCc3c(-c4c(Cl)cccc4Cl)noc3C3CC3)cc2Cl)cc(C(=O)O)c1` [Compound I-77, 3-((tert-butoxycarbonyl)amino)-5-((2-chloro-4-((5-cyclopropyl-3-(2,6-dichlorophenyl)isoxazol-4-yl)methoxy)phenyl)ethynyl)benzoic acid] are 1010 ng·h/mL, at most 20 nM and 100%.
In the same order, the values of `O=C(O)c1cc(C#Cc2ccc(OCc3c(-c4c(Cl)cccc4Cl)noc3C3CC3)cc2Cl)c2cn[nH]c2c1` [Compound I-89, 4-((2-chloro-((5-cyclopropyl-3-(2,6-dichlorophenyl)isoxazol-4-yl)methoxy)phenyl)ethynyl)-1H-indazole-6-carboxylic acid] are 271 ng·h/mL, 20 to 60 nM and 88%.
For `O=C(O)c1cc(C#Cc2ccc(OCc3c(-c4c(Cl)cccc4Cl)noc3C3CC3)cc2Cl)c2cc[nH]c2c1` [Compound I-91, 4-((2-chloro-4-((5-cyclopropyl-3-(2,6-dichlorophenyl)isoxazol-4-yl)methoxy)phenyl)ethynyl)-1H-indole-6-carboxylic acid], the AUC in the data set “Mouse pharmacokinetics” (mouse, read-out: AUC) turned out to be 544 ng·h/mL. Besides, at human FXR, the 50% effective concentration (EC50) is at most 20 nM and the Emax is over 100%.
In the same order, the values of `O=C(O)c1cc(C#Cc2ccc(OCc3c(-c4c(Cl)cccc4Cl)noc3C3CC3)cc2Cl)cc2[nH]ncc12` [Compound I-99, 6-((2-chloro-4-((5-cyclopropyl-3-(2,6-dichlorophenyl)isoxazol-4-yl)methoxy)phenyl)ethynyl)-1H-indazole-4-carboxylic acid] are 205 ng·h/mL, 60 to 200 nM and 86%.
In the same order, the values of `CC(C)c1nc2cc(C#Cc3ccc(OCc4c(-c5c(Cl)cccc5Cl)noc4C4CC4)cc3Cl)cc(C(=O)O)c2o1` [Compound I-106, 5-((2-chloro-4-((5-cyclopropyl-3-(2,6-dichlorophenyl)isoxazol-4-yl)methoxy)phenyl)ethynyl)-2-isopropylbenzo[d]oxazole-7-carboxylic acid] are 2250 ng·h/mL, 20 to 60 nM and 96%.
In the case of `CC(C)c1onc(-c2c(Cl)cccc2Cl)c1COc1ccc(/C=C/c2cccc(C(=O)O)c2)c(Cl)c1` [WO2000037077 GW4064], the “AUC” value in “Mouse pharmacokinetics” was determined as 253.31 ng·h/mL. Further, in data set [4], the insulin sensitivity entry is recorded as “improved insulin sensitivity” and the plasma glucose levels entry was “reduced plasma glucose levels”.

Usually AUC stands for concentration integrated over time. A word on the EC50: it is the concentration at which the effect is half-maximal. The term Emax denotes the greatest response seen or fitted, relative to the assay's reference.
